Like-named read-outs stand apart in the source and are kept apart here.
Columns and labels:
[1] = test system: Cryptococcus neoformans ATCC 90113; assay: Antimicrobial microdilution assay against Cryptococcus neoformans (modified CLSI/NCCLS, optical density); assay type: cell-based; conditions: for X more potent than Amphotericin B: C. neoformans, ratio of molar IC50 to Amphotericin B; for C. neoformans IC50 / IC50: in vitro, C. neoformans ATCC 90113; for IC50: read-out: C. neoformans IC50 (mol/L)
Outline: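 Fungicidal endpoint taken by subculturing 5 μL from each clear well onto agar, MFC being the lowest concentration with no regrowth. Duplicate wells of serially diluted compound (20% DMSO/saline) in RPMI pH 6.0, read at 630 nm pre- and post-incubation, under modified CLSI methods. IC50 means 50% growth inhibition against controls.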

[2] = test system: methicillin-resistant S. aureus ATCC 33591 (MRS); assay: Antibacterial broth dilution assay against MRSA (modified CLSI); assay type: cell-based, Staphylococcus aureus; conditions: for MRSa IC50 / IC50: in vitro; for IC50: converted with molecular weight; for X more potent than ciprofloxacen: molar IC50 ratio versus ciprofloxacen
Outline: (§1)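 Growth read by optical density at 530 nm, duplicate wells, 1% final DMSO. Staphylococcus spp.: Mueller-Hinton pH 7.3, 5.0×10^5 CFU/ml, 35 °C for 16-20 h; Candida spp.: RPMI/dextrose/glutamine/MOPS pH 6.0, 1.5×10^3 CFU/ml, 35 °C for 46-50 h. Reported values are 50% inhibition versus controls, no-growth MIC, and killing MFC/MBC.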

[3] = test system: C. krusei ATCC 6258; assay: Antifungal broth dilution assay against C. krusei (modified CLSI); assay type: cell-based, Candida krusei; conditions: for X more potent than Amphotericin B: C. krusei, ratio of molar IC50 to amphotericin B; for C. krusei IC50 / IC50: in vitro; for IC50: read-out: C. krusei IC50 (mol/L)
Outline: as §1

Compound | X more potent than Amphotericin B [1] | C. neoformans IC50 [1] [µg/mL] | IC50 ([1]; HCl salt) [µM] | MRSa IC50 [2] [µg/mL] | IC50 ([2]; HCl salt) [µM] | X more potent than ciprofloxacen [2] | IC50 [1] [µM] | IC50 [2] [µM] | X more potent than Amphotericin B [3] | C. krusei IC50 [3] [µg/mL] | IC50 [3] [µM]
CN1CCCN2CCN(CCCN(Cc3cccc(CN4CCCN5CCN(C)CCCN(CC5)CC4)c3)CC2)CC1.Cl.Cl.Cl.Cl.Cl.Cl.Cl.Cl [TJS04, m-CB-cyclams HCl salt] | 0.61 | 0.380 | 0.39 | 7.050 | 7.24 | 0.03 | – | – | – | – | –
c1ccc(CN2CCN3CCCN(CC2)CCN(Cc2ccccc2)CC3)cc1 [AW009, Bn2PBCyclen] | 0.01 | 6.740 | – | 1.050 | – | 0.08 | 17.2 | 2.68 | 0.10 | 6.170 | 15.7
[Cl][Mn-2]([Cl])([Cl])[Cl].[Mn+2].c1ccc(CN2CCCN3CCCN(CCCN(Cc4ccccc4)CC3)CC2)cc1 [BME08, [Mn(Bn2PBCyclam)][MnCl4]] | 0.13 | 1.203 | – | 0.800 | – | 0.18 | 1.79 | 1.19 | 0.19 | 5.270 | 7.84
CC(=O)[O-].F[P-](F)(F)(F)(F)F.[Ni+2].c1ccc(CN2CCCN3CCCN(CCCN(Cc4ccccc4)CC3)CC2)cc1 [DJD22, [Ni(Bn2PBCyclam)(OAc)]PF6] | 0.03 | 5.240 | – | 4.620 | – | 0.03 | 7.67 | 6.76 | 0.19 | 5.250 | 7.68
c1cc(CN2CCCN3CCCN(CCCNCC3)CC2)ccc1CN1CCCN2CCCN(CCCNCC2)CC1 [SLK10, p-H2PBCyclams] | 0.01 | 15.010 | – | 2.500 | – | 0.05 | 25.8 | 4.29 | – | – | –
